Results reported in patent US10077446B2, “Glucan-encapsulated siRNA for treating type 2 diabetes mellitus” (The United States of America, as represented by THE …, priority 2013, dated 2018).

How the values were obtained:
CB2R mRNA = test: siRNA specificity: CB2 receptor expression in peritoneal elicited macrophages (PEC); type: cell-based, rat; conditions: thioglycollate-induced PEC
Description: The specificity of each siRNA was measured in terms of knockdown of CB2 receptor expression, and a dose-response analysis of siRNA C was carried out.
(§1) Eight-week old ZDF rats were injected i.p. with 4% thioglycollate broth (Sigma-Aldrich). Five days following injection, the peritoneal cavity was washed with PBS and peritoneal fluid was filtered through a 70 μm diameter pore nylon mesh and centrifuged. The pellet was first treated with red blood cell lysis buffer and plated in DMEM supplemented with 10% fetal bovine serum (FBS), 50 μg/ml streptomycin and 50 units/ml penicillin. 24 hours after isolation peritoneal elicited cells (PEC) were treated with siRNA. Eighty, 160 or 240 pmoles of scrambled or CB1R siRNA (Dharmacon) was incubated with 3 nmoles EP in PBS for 15 min and added to 1×10^6 cells. 48 hours after treatment, mRNA were extracted, reversed transcribed and the degree of CB1R knock-down was analyzed by qPCR.
Total mRNA from the liver, pancreas and kidney were extracted with Trizol (Invitrogen), while total mRNA from cells was extracted using RNEASY™ Mini Kit (Qiagen). All extractions were followed by DNase I treatment (Invitrogen). Total mRNA was reverse-transcribed using the ISCRIPT™ cDNA kit (Bio-Rad). […] QUANTITECT™ Primer Assays were used to detect gene expression (Table 3, which lists the primers used for rat and mice (tissue)). […]

CB1R mRNA = test: CB1R gene silencing by siRNA/EP in peritoneal elicited macrophages (PEC), qPCR; type: cell-based, rat
Description: as §1
Total mRNA from the liver, pancreas and kidney were extracted with Trizol (Invitrogen), while total mRNA from cells was extracted using RNEASY™ Mini Kit (Qiagen). All extractions were followed by DNase I treatment (Invitrogen). Total mRNA was reverse-transcribed using the ISCRIPT™ cDNA kit (Bio-Rad). Real-time PCR was performed as described previously (Jourdan, et al. 2010 Diabetes 59:926-934) in a 96-well plate using a STEPONEPLUS™ real time PCR system (Applied Biosystems). QUANTITECT™ Primer Assays were used to detect gene expression (Table 3, which lists the primers used for rat and mice (tissue)). […]

[1] = system: Zucker diabetic fatty (ZDF) rats; test: 10-day i.p. treatment of ZDF rats with glucan-encapsulated CB1R siRNA (GeRPs); type: in vivo, rat; conditions: daily i.p. GeRPs for 10 days
Description: Blood glucose levels were determined using the Elite glucometer (Bayer, Pittsburgh, Pa.). […] Plasma insulin was measured using the Ultra Sensitive rat Insulin ELISA kit (Crystal Chem Inc). Hemoglobin A1c was determined using the Rat Hemoglobin A1c (HbA1c) assay kit (Crystal Chem) and c-peptide was quantified by ELISA (C-peptide (rat) ELISA, ALPCO). Serum leptin and adiponectin were determined by ELISA (B-Bridge International). α-amylase, lipase, and uric acid concentrations were determined using commercially available colorimetric kits (BioAssay Systems). TNF-α and IL-1β were determined using TNF-α ELISA Kit (for Lysates) (RayBiotech, Inc.) and IL1β Rat ELISA Kit (Abeam), respectively.
Pancreas was fixed in 10% neutral buffered formalin (NBF), embedded in paraffin and sectioned ([…]) onto glass slides. […] For detection, secondary Ab coupled to FITC or PE were used (Table 2). Images were viewed with a Fluoview FV10i confocal microscope system (Olympus). Images were then analyzed using image J software and the presence or absence of co-localization was assessed by calculating the Pearson's coefficient.
Fluorescein (FITC)-labeled glucan shells were prepared as previously described (Tesz, et al. 2011 Biochemical Journal 436:351-362). To prepare a GeRP dose for one rat, 50 nmoles siRNA (Dharmacon) were incubated with 500 nmoles Endo-Porter (Gene Tools) in 30 mM sodium acetate pH 4.8 for 15 min at RT in a final volume of 200 μl. The siRNA/Endo-Porter solution was added to 10 mg ([…]) of FITC-glucan shells and then vortexed and incubated for 1 hour. The siRNA loaded GeRPs were then resuspended in 5 ml PBS and sonicated to ensure homogeneity of the GeRP preparation. […]
Total mRNA from the liver, pancreas and kidney were extracted with Trizol (Invitrogen), while total mRNA from cells was extracted using RNEASY™ Mini Kit (Qiagen). […] QUANTITECT™ Primer Assays were used to detect gene expression (Table 3, which lists the primers used for rat and mice (tissue)). […]

sense GCAUCAAGAGCACCGUUAAUU (SEQ ID NO: 9), antisense UUAACGGUGCUCUUGAUGCUU (SEQ ID NO: 10) (listed as RNA, chemistry not given here) [siRNA C, siRNA directed against rat CB1R, selected for in vivo use]
CB2R mRNA (CB2R mRNA): no change
degree of knockdown among the four siRNA sequences (CB1R mRNA; rat CB1R siRNAs A-D): greatest degree of knockdown
suppression of CB1R mRNA (CB1R mRNA; thioglycollate-induced PEC, 48 h, dose-dependent, preliminary experiments): > 95%
glycemia and insulinemia [1]: remained normoglycemic and hyperinsulinemic
insulin expression and content in islets [1]: increased
macrophage infiltration and expression of Nlrp3-ASC, IL-1β, IL-18, MCP-1 and CB1R [1]: decreased
